One data set addresses tyrosinase. Description: Inhibitory activity against tyrosinase (mushroom enzyme, L-tyrosine substrate, absorbance at 475 nm). Format: biochemical, mushrooms. Conditions: pH 6.8, 37° C., 10 minutes. Here is the method:
That is, a sample is introduced into a microplate, to which are added a phosphate buffer solution(pH 6.8) and a L-tyrosine solution.
Inhibitory Activity Against Tyrosinase
Enzyme tyrosinase extracted from mushrooms(manufactured by Sigma) was used in the present experiment. First, a substrate L-tyrosine was dissolved in phosphate buffer solution(0.05M, pH 6.8) to a concentration of 1.5 mM and then 0.01 ml of this solution was introduced to a 0.3 ml cuvette in a spectrophotometry. Dopa as a cofacter was prepared as a solution in a concentration of 0.06 mM and 0.01 ml of this dopa solution was added to the substrate solution. To the resulting mixture were added the inhibitor of formula (I) and phosphate buffer solution to a total volume of 0.31 ml. The reaction was started by adding 0.1 ml of an enzyme solution in which tyrosinase was dissolved in phosphate buffer solution in a concentration of 60 U/ml. 0.1 ml of phosphate buffer solution instead of the enzyme solution was added to the blank sample. The reaction was carried out for 10 minutes at 37° C. and then absorbance at 475 nm was measured using Spectrophotometer (Beckman DU-7500).
[formula] in the above formula A represents absorbance at 475 nm when the inhibitor is added, and
B represents absorbance at 475 nm when the inhibitor is not added.

Data set [1] concerns B-16 mouse melanoma cells. Description: Inhibitory effect against melanin biosynthesis in B-16 mouse melanoma cell. Format: cell-based. The following applies: 72 h, read-out: IC50 (inhibition of melanin biosynthesis). Here is the method: Inhibitory Effect Against Melanin Biosynthesis in B-16 Mouse Melanoma Cell
B-16 mouse melanoma cells were cultured to a density of 10^6 cells/dish in culture media compounds in various concentrations were respectively added thereto and then cultured for 3 days. The cells were separated from the culture dish by the treatment with trypsin and then centrifuged to extract melanin(wherein a pellet was extracted using 2N perchloric acid). 1 ml of 1N aqueous sodium hydroxide solution was added to the melanin extracted and the resulting mixture was heated to dissolve melanrin. The absorbance at 400 nm was measured by a spectrophotometer and the amount of the melanin produced was represented by the absorbance per unit cell numbers(10^6 cell).

For data set [2] the following is noted: literature, J. Soc. Cosmet. Chem., 42, 361, 1991; cited from earlier work.
For data set [3] the following is noted: background; cited from earlier work.
Setting [4] is: B-16 mouse melanoma cells, 3 days, absorbance at 400 nm.

In brackets after ≈: the same amount, converted by molar mass. Read-outs that look alike come from different tables or passages of the source.

For `COc1c(C)c(C)c(O)c(C(O)CCc2ccc(O)cc2O)c1C` (centres unmarked) [Compound 5, 4-[3-hydroxy-3-(2-hydroxy-5-methoxy-3,4,6-trimethyl-phenyl)-propyl]-benzene-1,3-diol], the “IC50 (inhibitory activity against tyrosinase)” value on tyrosinase amounted to 0.1 µg/mL (≈ 0.301 µM). For the same compound, the IC50 in data set [1] (setting [4]) is 5 µg/mL (≈ 15 µM).
Take `Oc1ccc(O)cc1` [Hydroquinone, reference compound]: the “IC50 (inhibitory activity against tyrosinase)” value at tyrosinase was found to be 0.5 µg/mL (≈ 4.54 µM). In addition, the side effects entry in data set [2] was “degeneration or lethal mutation of melanin, damage of the cellular function”.
Take `COc1c(C)c(C)c(O)c(CCCc2ccc(O)cc2O)c1C` [Compound 6, 4-[3-(2-hydroxy-5-methoxy-3,4,6-trimethyl-phenyl)-propyl]-benzene-1,3-diol]: the “IC50 (inhibitory activity against tyrosinase)” value against tyrosinase stood at 0.1 µg/mL (≈ 0.316 µM). Also, in data set [1] (setting [4]), the IC50 came to 10 µg/mL (≈ 31.6 µM).
The like results for `COc1c(C)c(C)c(O)c(C)c1C(O)CCc1ccc(O)cc1O` (centres unmarked) [Compound 3, 4-[3-hydroxy-3-(5-hydroxy-2-methoxy-3,4,6-trimethyl-phenyl)-propyl]-benzene-1,3-diol] were, in that order, 50 µg/mL (≈ 150 µM) and 40 µg/mL (≈ 120 µM).
Turning to `O=c1cc(CO)occ1O` [Kojic acid, reference compound], in data set [1] (Mus musculus), the IC50 came out at 15 µg/mL (≈ 106 µM).
Regarding `Cc1c(C)c(O)c(C(O)CCc2ccc(O)cc2O)c(C)c1O` (centres unmarked) [Compound 1, 4-[3-hydroxy-3-(2,5-dihydroxy-3,4,6-trimethyl-phenyl)-propyl]-benzene-1,3-diol], the “IC50 (inhibitory activity against tyrosinase)” value against tyrosinase was determined as 0.5 µg/mL (≈ 1.57 µM). Moreover, in data set [1] (setting [4]), the IC50 came to 10 µg/mL (≈ 31.4 µM).
In the same order, the values of `Cc1c(C)c2c(c(C(O)CCc3ccc(O)cc3O)c1O)CCC(C)(C)O2` (centres unmarked) [Compound 8, 4-[3-hydroxy-3-(6-hydroxy-2,2,7,8-tetramethyl-chroman-5-yl)-propyl]-benzene-1,3-diol] are 0.3 µg/mL (≈ 0.805 µM) and 2 µg/mL (≈ 5.37 µM).
Consider `COc1c(C)c(C)c(O)c(C)c1CCCc1ccc(O)cc1O` [Compound 4], for which, on tyrosinase, the “IC50 (inhibitory activity against tyrosinase)” value was determined as 20 µg/mL (≈ 63.2 µM). In data set [1] (setting [4]), the IC50 amounted to 45 µg/mL (≈ 142 µM).
The like results for `Cc1c(C)c2c(c(CCCc3ccc(O)cc3O)c1O)CCC(C)(C)O2` [Compound 9, 4-[3-(6-hydroxy-2,2,7,8-tetramethyl-chroman-5-yl)-propyl]-benzene-1,3-diol] were, in that order, 0.3 µg/mL (≈ 0.842 µM) and 3 µg/mL (≈ 8.42 µM).
In the same order, the values of `Cc1c(C)c(O)c(CCCc2ccc(O)cc2O)c(C)c1O` [Compound 2, 4-13-(2,5-dihydroxy-3,4,6-trimethyl-phenyl)-propyll-benzene-1,3-diol] are 1 µg/mL (≈ 3.31 µM) and 5 µg/mL (≈ 16.5 µM).
Turning to `OC[C@H]1O[C@@H](Oc2ccc(O)cc2)[C@H](O)[C@@H](O)[C@@H]1O` [Arbutin, reference compound], in data set [1] (setting [4]), the IC50 was found to be 300 µg/mL (≈ 1100 µM). In addition, the whitening effect result in data set [3] is reported as “little whitening effect”.
Consider `CCOc1c(C)c(C)c(O)c(C(O)CCc2ccc(O)cc2O)c1C` (centres unmarked) [Compound 7], for which the “IC50 (inhibitory activity against tyrosinase)” value against tyrosinase worked out at 1.0 µg/mL (≈ 2.89 µM). Also, the IC50 in data set [1] (setting [4]) is 20 µg/mL (≈ 57.7 µM).

In general, IC50 refers to the concentration at which inhibition is half-maximal.

The values are drawn from US6093836A, “1,3-diphenylpropane derivatives having inhibitory activity against tyrosinase and process for preparation thereof” (priority 1997, dated 2000).
